Test results: article PMC6753678, “Fueling Open Innovation for Malaria Transmission-Blocking Drugs: Hundreds of Molecules Targeting Early Parasite Mosquito Stages” (Frontiers in Microbiology, 2019)
pIC50: −log10 of the molar value. Read-outs that look alike come from different tables or passages of the source.

Experiments:
HepG2 cells [1] = assay: HepG2 cytotoxicity assay
How it was run: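 Here viability after a 48 h compound incubation (37°C, humidified 5% CO2) is measured by fluorescence and expressed as percent inhibition, with doxorubicin at 50 μM and DMSO as the bounding controls.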

[2] = test system: P. falciparum late stage (stages IV-V) gametocytes; parameters: method as in Almela et al 2016; settings: ref Almela et al 2016, read-out: Pf GCT ATP IC50, cited from earlier work
[3] = test system: P. falciparum late stage (stages IV-V) gametocytes; assay: P. falciparum late stage gametocyte ATP depletion assay (Pf GC-ATP); settings: 1: YES; 0: NO
[4] = test system: P. falciparum female gametocytes; assay: P. falciparum female gametogenesis assay (Pf FGAA); settings: 1: YES; 0: NO
HepG2 cells [5] = settings: cited from earlier work
[6] = test system: P. falciparum female gametocytes; parameters: method as in Miguel-Blanco et al 2017; settings: ref Miguel-Blanco et al 2017, read-out: Pf FGAA IC50, cited from earlier work
[7] = HepG2 cytotoxicity unified across the three screens
[8] = value reported with the Pf FGAA screen, ref Miguel-Blanco et al 2017
[9] = value reported with the Pf GCT ATP screen, ref Almela et al 2016
[10] = HepG2 values of the three screens unified

| SMILES | Unified cytotox (HepG2 cells [1]; [7]) | pIC50 ([2]; TCAMS screen comparison) | Is compound selective in assay? Pf GC-ATP active? [3] | Is compound selective in assay? Pf FGAA active? [4] | HepG2 cytoxicity (HepG2 cells [5]; [8]) | HepG2 cytoxicity (HepG2 cells [5]; [9]) | pIC50 ([6]; TCAMS screen comparison) | Unified cytotox (HepG2 cells [1]; [10]) | pIC50 [2] | HepG2 cytoxicity (Pf GCT ATP screen) (HepG2 cells [5]; ref Almela et al 2016) | HepG2 cytoxicity (Pf FGAA screen) (HepG2 cells [5]; ref Miguel-Blanco et al 2017) | pIC50 [6] |
| --- | --- | --- | --- | --- | --- | --- | --- | --- | --- | --- | --- | --- |
| CC(C)COc1ccc2ccccc2c1CNCCCCCCNCc1c(OCC(C)C)ccc2ccccc12.CS(=O)(=O)O [TCMDC-137972] | 2.03 µM | 7.00 | 1 (1: YES) | 0 (0: NO) | 2.19 µM | 1.88 µM | 6.09 |  |  |  |  |  |
| C#CCCOc1ccc2ccccc2c1CNCCCCCCNCc1c(OCCC#C)ccc2ccccc12 [TCMDC-137832] | 5.14 µM | 6.39 | 1 (1: YES) | 0 (0: NO) | 4.79 µM | 5.5 µM | 6.04 |  |  |  |  |  |
| COc1c(OC)c(OC)c2ccccc2c1CNCCCCCCNCc1c(OC)c(OC)c(OC)c2ccccc12.Cl [TCMDC-137827] | 3.08 µM | 5.94 | 0 (0: NO) | 0 (0: NO) | 2.95 µM | 3.2 µM | 5.78 |  |  |  |  |  |
| Cl.Clc1ccc(OCCC2CCN(CCCCCCCN3CCC(CCOc4ccc(Cl)c(Cl)c4)CC3)CC2)cc1Cl [TCMDC-138967] | 2.12 µM | 6.33 | 0 (0: NO) | 0 (0: NO) | 1.64 µM | 2.6 µM | 6.28 |  |  |  |  |  |
| Fc1ccc(OC2CN(c3nccc(NCc4ccccc4Cl)n3)C2)cc1 [TCMDC-135110] | 83.45 µM | 5.60 | 1 (1: YES) | 1 (1: YES) | 83.45 µM | >25 µM | 5.28 |  |  |  |  |  |
| CN1CCN(CCCN(Cc2cccc(-c3ccc(CNC4CCCC4)cc3)c2)C(=O)/C=C/c2ccccc2)CC1.O=C(O)C(F)(F)F [TCMDC-140544] | 7.04 µM | 6.13 | 0 (0: NO) | 0 (0: NO) | 7.70 µM | 6.39 µM | 5.87 |  |  |  |  |  |
| C[C@H](Cc1ccc(CCc2ccc(C[C@@H](C)NC[C@H](O)c3cccc(Cl)c3)cc2)cc1)NC[C@H](O)c1cccc(Cl)c1.Cl [TCMDC-131551] | 3.68 µM | 6.57 | 1 (1: YES) | 0 (0: NO) | 4.27 µM | 3.1 µM | 5.69 |  |  |  |  |  |
| [O-][s+]1c(Cl)c(-c2ccc(Cl)cc2)c2ccc(Cl)cc21 (stereo not shown) [TCMDC-124011] | 12.08 µM | 7.70 | 1 (1: YES) | 1 (1: YES) | 11.35 µM | 12.8 µM | 7.44 |  |  |  |  |  |
| COc1cc2nc(N3CCC(CCCC4CCNCC4)CC3)nc(NCc3ccccn3)c2cc1OC.O=C(O)C(F)(F)F [TCMDC-138494] | 14.55 µM | 6.40 | 1 (1: YES) | 0 (0: NO) | 18.51 µM | 10.59 µM | 5.16 |  |  |  |  |  |
| COc1ccc2ccccc2c1CNCCCCCCNCc1c(OC)ccc2ccccc12.Cl [TCMDC-137915] |  |  | 1 (1: YES) | 0 (0: NO) |  |  |  | 3.90 µM | 6.60 | 3.59 µM | 4.22 µM | 6.15 |
| COc1cc2ccccc2c(CNCCCCCCNCc2c(OC)c(OC)cc3ccccc23)c1OC.CS(=O)(=O)O [TCMDC-137795] | 4.66 µM | 5.98 | 0 (0: NO) | 0 (0: NO) | 4.62 µM | 4.7 µM | 6.17 |  |  |  |  |  |
| COc1cc2nc(NCCCN3CCCCC3)nc(NCc3ccccc3)c2cc1OC [TCMDC-132012] | 7.89 µM | 6.52 | 1 (1: YES) | 0 (0: NO) | 6.84 µM | 8.94 µM | 6.05 |  |  |  |  |  |
| CC(=O)N(Cc1ccc(CC(C)NCCc2cccc(Cl)c2)cc1)Cc1ccc(CC(C)NCCc2cccc(Cl)c2)cc1 (stereo not shown) [TCMDC-139678] | 2.58 µM | 5.85 | 0 (0: NO) | 0 (0: NO) | 2.85 µM | 2.3 µM | 6.09 |  |  |  |  |  |
| COc1cc2nc(NCc3cccc(CNC(=O)c4ccc(-c5ccc(C(C)=O)cc5)cc4)c3)nc(N)c2cc1OC.O=C(O)C(F)(F)F [TCMDC-138177] | 8.16 µM | 5.70 | 0 (0: NO) | 0 (0: NO) | 6.82 µM | 9.5 µM | 5.33 |  |  |  |  |  |
| CNCCNc1nccc(N2CCc3ncnc(Nc4ccc(OCc5cccc(F)c5)c(Cl)c4)c3C2)n1 [TCMDC-135478] | 6.39 µM | 6.17 | 0 (0: NO) | 0 (0: NO) | 5.62 µM | 7.16 µM | 5.78 |  |  |  |  |  |
| CCCCOc1cc(OC)c2ccccc2c1CCNCCCCNCCc1c(OCCCC)cc(OC)c2ccccc12.CS(=O)(=O)O [TCMDC-137845] |  |  | 0 (0: NO) | 0 (0: NO) |  |  |  | 2.49 µM | 6.30 | 3 µM | 1.97 µM | 6.12 |
| CCc1c(CCNCCCCCCNC(C)(C)Cc2ccc3c(c2CC)OCO3)ccc(OC)c1OC.Cl [TCMDC-132055] | 4.32 µM | 6.57 | 1 (1: YES) | 0 (0: NO) | 4.27 µM | 4.37 µM | 5.91 |  |  |  |  |  |
| COc1ccc(OC)c(-c2cccc(-c3cccc(NC(=O)c4ccc([N+](=O)[O-])o4)c3)n2)c1 [TCMDC-124799] | 4.89 µM | 6.11 | 0 (0: NO) | 0 (0: NO) | 3.63 µM | 6.15 µM | 6.02 |  |  |  |  |  |
| CCCCCCOc1ccc2ccccc2c1CNCCCCCCNCc1c(OCCCCCC)ccc2ccccc12.CS(=O)(=O)O [TCMDC-137963] | 2.85 µM | 6.32 | 0 (0: NO) | 0 (0: NO) | 2.40 µM | 3.3 µM | 5.82 |  |  |  |  |  |
